{
  "source": "patent US20070116750A1",
  "about": "“Compositions for disrupting and inhibiting reconstitution of wound biofilm” (priority 2005, published 2007)",
  "origin": "cited, not measured here",
  "system": "established biofilm",
  "settings": "applied at full strength to an established biofilm",
  "data": [
    {"compound": "OCl", "note": "[sodium hypochlorite]", "values": [
      {"measurement": "biofilm killed", "result": 50, "unit": "%"}
    ]}
  ]
}
